Data: ChEMBL document CHEMBL3507680, “University of Dundee, Gates Library screen for HepG2 cell viability”

Experiment: Human HepG2 cell viability assay in 384 well format
Assay type: toxicity, cell-based
Design: dose 125 nL, time 70.5 hour; cytotoxicity at 70.5 h: concentration not given beside the values
Settings: HepG2 cells, read-out: Inhibition

| SMILES | cytotoxicity at 70.5 h [%] |
| --- | --- |
| CC1(C)Cc2ccccc2-c2nc(NCCCO)[nH]c(=O)c21 | -3.41 |
| O=c1[nH]c(NCCO)nc2c1C1(CCCCC1)Cc1ccccc1-2 | -1.9 |
| CC1=Nc2c(c(=O)[nH]n2C(C)C)C(c2cccc(OC(F)F)c2)S1 (configuration not stated) | -17.2 |
| O=C(CCc1ccc(-n2cnnn2)cc1)Nc1nncs1 | -8.9 |
| Cn1cc(NC(=O)CNC(=O)N2CCN(c3ccccc3)CC2)cn1 | -8.66 |
| O=C(CC1CCCC1)Nc1ccc(-n2cc(Cl)cn2)nc1 | -12.3 |
| COc1cccc2c1ccn2CCNC(=O)CC(C)C | -15.1 |
| Cc1nc(C(=O)Nc2cccnc2)c(C(C)C)s1 | -6.88 |
| COc1ccc2nnc(CCCC(=O)NCc3ccccc3F)n2n1 | 21.9 |
| COc1ccc2nnc(CCCC(=O)Nc3nc4c(s3)CCC4)n2n1 | -17.4 |
| O=C(Nc1cccnc1-n1cc(Cl)cn1)C1CCCCC1 | -26.8 |
| CC(C)CC1CC(=O)Nc2c1cnn2Cc1ccco1 (configuration not stated) | -22.8 |
| Cc1nn(-c2ncnc3[nH]cnc23)c2c1C(C(C)(C)C)CC(=O)N2 (configuration not stated) | 0.0512 |
| O=C(CCc1nc2cc(Br)cnc2[nH]1)NCc1cccnc1 | -17.1 |
| O=c1cc2c(nn1CN1CCN(c3ccc(F)cc3)CC1)CCC2 | -13.2 |
| O=C(Nc1cccnc1-n1cc(Cl)cn1)C1CC1 | -27.5 |
| CC(C)C1CC(=O)Nc2c1cnn2Cc1ccco1 (configuration not stated) | -15.8 |
| O=c1cc2c(nn1CN1CCN(c3ccccc3)CC1)CCCC2 | -15 |
| COC(=O)[C@H](CCSC)NC(=O)Cc1c(C)nn(-c2ccccc2)c1C | -11.6 |
| COc1ccc2nnc(CCC(=O)Nc3nc4c(s3)CCCC4)n2n1 | -11.9 |
| Cc1ccc(S(=O)(=O)c2ncccc2CN2CCCCC2)cc1 | -21 |
| CC(C)C1SCC(=O)Nc2c1cnn2C(C)C (configuration not stated) | -23.1 |

| SMILES | cytotoxicity at 70.5 h [%] |
| --- | --- |
| O=c1c(CN2CCOCC2)coc(O)c1CN1CCOCC1 | -7.31 |
| CN(C)CC(=O)N1CCc2ncnc(-c3ccsc3)c2CC1 | -0.46 |
| CCn1nnc2c1CCN(S(C)(=O)=O)C2COCc1ccccc1 (configuration not stated) | 2.15 |
| c1csc(CN2C[C@H]3CCC[C@@]3(COCC3CCOCC3)C2)n1 | 1.66 |
| CNC(=O)N1CC[C@@H]2CN(CCc3cccc(OC)c3)S(=O)(=O)[C@@H]2CC1 | -0.824 |
| c1ccc(COC[C@@]23CCC[C@@H]2CN(Cc2ccccn2)C3)nc1 | 0.536 |
| CN1CCN(Cc2ccco2)Cc2cccnc21 | 0 |
| O=C([C@H]1C[C@H]2OCC[C@H]2N(CC2CC2)C1)N1CCCC1 | 5.6 |
| Cn1cc(CN2CCc3ncnc(C4CCOC4)c3CC2)cn1 (configuration not stated) | 6 |
| Cn1cccc1C(=O)N1CC[C@H]2[C@@H]1CCC(=O)N2c1ccccc1 | 11.6 |
| O=C(Cc1ccccc1)N1CC[C@@H]2CNS(=O)(=O)[C@@H]2CC1 | 2.48 |
| Cn1cccc1C(=O)N1CC[C@H]2[C@@H]1CCC(=O)N2CC1CC1 | 3.01 |
| O=C(NC1CC1)N1CCc2ccc(=O)n(CC3CC3)c2CC1 | -1.74 |
| O=C(NC1CC1)N1CCc2ccc(=O)n(Cc3ccncc3)c2CC1 | 12.1 |
| COCCNC(=O)[C@]12COC[C@H]1CN(c1cc(OC)ncn1)C2 | -1.98 |
| CN1CC(c2ccccc2)C2(CCN(C(=O)c3cccn3C)CC2)C1=O (configuration not stated) | 1.54 |
| COc1cc(N2C[C@@H]3COC[C@]3(C(=O)NCc3ccccn3)C2)ncn1 | -3.03 |
| CCc1cnc(N2CC[C@@H]3CN(C(C)=O)CCO[C@@H]3C2)nc1 | -2.86 |
| CN1C(=O)CC(c2ccccc2)C12CCN(C(=O)c1ccc[nH]1)CC2 (configuration not stated) | -4.56 |
| c1csc(CN2CCC3(CC2)COCCN3CC2CC2)n1 | -10.1 |
| CN1CCN(CC2CC2)C(=O)C12CCN(C(=O)c1cnccn1)CC2 | -3.74 |
| O=C(c1ccco1)N1CCO[C@@H]2CN(c3ncc(F)cn3)CC[C@@H]2C1 | -5.01 |

| SMILES | cytotoxicity at 70.5 h [%] |
| --- | --- |
| Cn1nc(COCC2CC2)c2c1CCN(C(=O)c1ccno1)C2 | -10.9 |
| CN1CC[C@]2(CN(C(=O)c3ccc[nH]3)C[C@H]2c2ccccc2)C1=O | -3.54 |
| O=C(c1ccoc1)N1CC[C@@H]2[C@@H](CC1)OCCN2c1cccnc1 | -5.9 |
| CCOCc1nn(CC2CC2)c2c1CN(C(=O)c1ccno1)CC2 | -7.44 |
| CO[C@@H]1CCN(c2ncc(F)cn2)[C@@H]2CN(CC3CC3)C[C@@H]21 | -11.2 |
| CCN1C[C@H]2CCN(C(=O)c3cc[nH]n3)CC[C@H]2S1(=O)=O | -14.6 |
| O=S(=O)(c1ccccc1)N1C[C@@H]2COC[C@]2(COCC2CC2)C1 | 1.08 |
| c1cc([C@H]2C[C@@H]3CCN(Cc4nccs4)C[C@H]3O2)ncn1 | -3.39 |
| CCC(C)n1c(SCC(=O)N2CCOCC2)nc2cc(C)[nH]c2c1=O (configuration not stated) | 13.3 |
| Cc1cc2nc(SCC(=O)N3CCOCC3)n(CCC(C)C)c(=O)c2[nH]1 | -0.683 |
| O=C(O)c1nnn(-c2cccc(C(F)(F)F)c2)c1-c1ccncc1 | 5.64 |
| CCc1cccc(-n2nnc(C(=O)O)c2-c2ccncc2)c1 | -13.1 |
| O=C(O)c1nnn(-c2ccc(Cl)c(C(F)(F)F)c2)c1-c1ccncc1 | -26.7 |
| CN1CCc2c(C#N)c(NCCCO)n3cnnc3c2C1 | -20.7 |
| CN1CCc2c(C#N)c(NCc3ccncc3)n3cnnc3c2C1 | -14.7 |
| Cc1ncnc2c1CCN(C(=O)CN(C)C)CC2 | 19.6 |
| O=C1COC2(CCN(c3cccc(F)c3)CC2)CN1Cc1ccccn1 | 0.382 |
| CC(C)NC(=O)[C@H]1C[C@@H]2[C@@H](C1)OCCN2CC1CC1 | -3.31 |
| COc1cccc(CCN2C[C@H]3CCNCC[C@H]3S2(=O)=O)c1 | 23.9 |
| CCOc1ncnc2c1CCN(C(=O)CN(C)C)CC2 | 0.621 |
| O=C(c1ccccc1-c1ccccc1)N1C[C@@H]2CNC[C@]2(C(=O)O)C1 | 1.22 |
| O=C([C@H]1C[C@H]2OCC[C@H]2N(CC2CCOCC2)C1)N1CCCC1 | -2.01 |

| SMILES | cytotoxicity at 70.5 h [%] |
| --- | --- |
| Fc1ccc(N2CCC3(CC2)CC(OCc2cccnc2)CO3)cc1 (configuration not stated) | 0.624 |
| COc1cccc(CN2CCC3(CCN(c4ncc(F)cn4)CC3)C2)c1 | 0.663 |
| O=S1(=O)NC[C@H]2CCN(Cc3ccccc3)CC[C@H]21 | -2.52 |
| N#Cc1ccc(CN2CC3(CCCCN3c3cccnc3)CC2=O)cc1 (configuration not stated) | 1 |
| CNC(=O)COC1COC2(CCN(c3cnccn3)CC2)C1 (configuration not stated) | 4.72 |
| Cc1ccc(CN2CCOC3(CCN(C(=O)C4CCOC4)CC3)C2)cc1 (configuration not stated) | -1.7 |
| Cc1noc(C)c1CN1CCC2(CC1)CCN(C(=O)c1cscn1)C2 | 10.4 |
| CCc1ccc(CN2CC[C@@H]3CN(S(C)(=O)=O)CCO[C@@H]3C2)o1 | -3.27 |
| COCCN1CCN(C)C2(CCN(C(=O)c3ccnnc3)CC2)C1=O | -0.603 |
| CN1CCC2(CCN(CC3CCOCC3)CC2)C1=O | -10.4 |
| CS(=O)(=O)N1CCCC12CCN(Cc1nccs1)C2 (configuration not stated) | -1.64 |
| O=C(c1ccco1)N1CCO[C@@H]2CN(c3ccccn3)CC[C@@H]2C1 | -4.86 |
| CC(C)CN1CCS(=O)(=O)[C@@H]2CCN(S(=O)(=O)C3CC3)CC[C@@H]21 | -16.5 |
| CN1CCC2(CCN(CC3CC3)CC2)C1=O | -7.27 |
| CS(=O)(=O)N1CCCCC12CCCN(Cc1nccs1)C2 (configuration not stated) | 11.6 |
| CO[C@@H]1CC[C@H]2[C@H]1OCCN2C(=O)c1ccc(C)nc1 | -3.99 |
| CNC(=O)C1Cn2ccnc2C2(CCN(C(=O)CC3CCCC3)CC2)O1 (configuration not stated) | -1.06 |
| O=C(c1cnccn1)N1CCCC2(CCN(Cc3ccc(F)cc3)C2)C1 (configuration not stated) | -4.76 |
| CS(=O)(=O)N1CC[C@]2(C[C@H](Oc3ccccn3)CO2)C1 | -7.19 |
| CNC(=O)C1Cn2ccnc2C2(CCN(C(=O)c3ccoc3C)CC2)O1 (configuration not stated) | -5.12 |
| Cc1noc([C@H]2C[C@@H]3CCN(CC4CCOCC4)C[C@H]3O2)n1 | -1.09 |
| Cc1ccoc1C(=O)N1C[C@@H]2COC[C@]2(COCc2cccnc2)C1 | -0.687 |

| SMILES | cytotoxicity at 70.5 h [%] |
| --- | --- |
| O=C(c1ccccc1F)N1C[C@@H]2COC[C@]2(COCc2cccnc2)C1 | -1.45 |
| O=C(Cc1cccs1)N1C[C@@H]2COC[C@]2(COCc2cccnc2)C1 | -5.53 |
| COCCN1CCN(Cc2ccco2)Cc2ccc(C)nc21 | 2.35 |
| Fc1cnc(N2CCC3(CC2)CN(Cc2ccccn2)CCO3)nc1 | 5.75 |
| c1ccc(CN2C[C@H]3CCC[C@@]3(COCC3CC3)C2)nc1 | -0.925 |
| O=C(C1CN(Cc2ccsc2)Cc2ccnn2C1)N1CCCC1 (configuration not stated) | 2.84 |
| CS(=O)(=O)N1CCO[C@@H]2CN(Cc3ccncc3)C[C@@H]2C1 | -5.73 |
| c1csc(CN2CCC3(CCCN3CC3CC3)CC2)n1 | -4.63 |
| O=S(=O)(c1cccnc1)N1C[C@@H]2COC[C@]2(CN2CCOCC2)C1 | -4.52 |
| COc1ccc2c(c1)C1(CCN(Cc3ccccn3)CC1)N(C)CC2 | 0.00866 |
| Cn1cccc1CN1CCC2(CCCN(C(=O)c3cccnc3)C2)CC1 | -2.44 |
| O=C1N(c2ccsc2)CCC12CCCN(Cc1cccnc1)C2 (configuration not stated) | -7.79 |
| Cc1ccc(N2CC3(COCCN(Cc4ccccn4)C3)OCC2=O)s1 (configuration not stated) | -1.36 |
| Cc1ccc(N2CC3(COCCN(Cc4ccncc4)C3)OCC2=O)s1 (configuration not stated) | 3.84 |
| c1ccc(CN2CCOC3(CCN(c4ncccn4)CC3)C2)nc1 | 12 |
| Fc1cccc(N2CCCC3(CN(Cc4ccccn4)CCO3)C2)c1 (configuration not stated) | -1.7 |
| Cc1cccc(CN2Cc3[nH]nc(COc4cccnc4)c3C2)n1 | -3.62 |
| Cn1cnc(S(=O)(=O)N2C[C@H]3CN(Cc4cccnc4)C[C@H]3C2)c1 | 1.66 |
| CO[C@@H]1CCN(c2ncc(F)cn2)[C@@H]2CN(Cc3cccnc3)C[C@@H]21 | -0.732 |
